One test deals with Cl. perfringens. Particulars: British Pat. No. 1303171 and application No. 36289/70; cited from earlier work.
For another test, the system named is Derm. dermatonomous. The conditions noted are these: British Pat. No. 1303171 and application No. 36289/70; cited from earlier work.
Test [1] addresses hydroxymethyldihydropteridine pyrophosphokinase (HMPPS) (Escherichia coli, UniProt P26281). The test can be described thus: Inhibition of the enzymes of dihydropteroate biosynthesis (ATP-γ-P32 transfer / dihydropteroate-C14 formation). It counts as biochemical. Particulars: E. coli enzyme extract; tests of Example K; read-out: concentration giving 50% inhibition. The protocol:
The inhibiting activity against HMPPS of a selected compound of formula (I) can, for instance, be tested by monitoring the transfer of the terminal phosphate of adenosinetriphosphate ATP-γ-p^32 to `dihydropteridine`. […] Such inhibition may, for instance, be easily and simply carried out by incubating an extract of E. coli with pAb-7-C^14, ATP, Mg and `dihydropteridine`. The formation of the dihydropteroate-C^14 can be quantitatively assayed after separating the unreacted pAB substrate, for instance by chromatography. […] Preferably the value is 25 μM or less, such as in the range between 2 to 12 μM. Generally a value below 7 μM is desirable. […]
(a) An assay for HMPPS was developed in which the transfer of the terminal phosphate of ATP-γ-P^32 to Pt could be monitored and correlated with the amount of inhibition of HMPPS by the compound under test. […]
Tubes 1 to 9 containing the amounts of components shown in the Table, were filled up to 200 μl with distilled water, incubated for 60 minutes at 37° C. and then chilled on ice. […] The charcoal and the filter were then radioactively counted. […]
(b) The activity of the test compound of formula (I) against `synthetase` was determined as follows, by monitoring the formation of dihydropteroate C^14. […]

pIC50: −log10 of the molar value.

Chain of hydroxymethyldihydropteridine pyrophosphokinase (HMPPS) (P26281 whole entry): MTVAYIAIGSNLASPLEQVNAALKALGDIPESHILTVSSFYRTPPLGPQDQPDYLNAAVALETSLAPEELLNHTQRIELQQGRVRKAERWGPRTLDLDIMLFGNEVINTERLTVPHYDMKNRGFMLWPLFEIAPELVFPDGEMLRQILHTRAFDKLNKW

As for `CC1(C)Nc2nc(N)nc(O)c2N=C1CO` [2-amino-4-hydroxy-6-hydroxymethyl-7,7-dimethyl-7,8-dihydropteridine], the bacteriostatic activity result in the test with Cl. perfringens and with Derm. dermatonomous was “particularly effective” throughout. Consider `CC1=Nc2c(O)nc(N)nc2NC1(C)C` [2-amino-4-hydroxy-6-methyl-7,7-dimethyl-7,8-dihydropteridine], for which the bacteriostatic activity result with Cl. perfringens and in the test on Derm. dermatonomous was “particularly effective” throughout. For `CC1(C)Nc2nc(N)nc(O)c2N=C1COc1ccccc1` [A, 2-Amino-4-hydroxy-6-phenoxymethyl-7,7-dimethyl-7,8-dihydropteridine], the pIC50 in test [1] is 4.77.
